Experimental data taken from patent US12636270B2, “Levothyroxine liquid formulations” (Fresenius Kabi USA, LLC, priority 2016, dated 2026).
Where two headings read alike, the source gives them in different places.

Conditions: 20 mcg/mL, tromethamine 10 mg/mL, normal saline
Procedure: Separate samples containing levothyroxine sodium at a concentration of 20 mcg/mL, tromethamine at a concentration of 10 mg/mL in normal saline (0.9% NaCl in water) were adjusted to various pH levels. One sample additionally contained hydroxypropyl (HP) β-cyclodextrin at a concentration of 10 mg/mL. 5 mL of each sample was filled into 10 cc amber tubing vials, and the vials were stoppered with 20 mm stoppers under nitrogen. The samples were stored at temperatures of 25° C., 40° C. and 55° C. The samples stored at 55° C. were analyzed by HPLC at 1 and 4 weeks (W) of storage. The samples stored at 40° C. were analyzed by HPLC at 4 W and 3 months (M) of storage. The samples stored at 25° C. were analyzed by HPLC at 3M of storage.
The HPLC conditions were as follows: • Column: Waters […]™ C8 (5 μm, 4.6×150 mm) HPLC column • Mobile Phase A: Sodium heptanesulfonate/Acetonitrile/Water/Methanol/H3PO4 (4.023 g/800 mL/1600 mL/1600 mL/4 mL) • Mobile Phase B: Sodium heptanesulfonate/Acetonitrile/Water/Methanol/H3PO4 (2.013 g/1000 mL/100 mL/900 mL/2 mL) • Diluent: 0.01 N NaOH • Column temperature: 25° C. • Flow rate: 1.5 mL/min • Injection volume: 40-200 μL • Autosampler temperature: 5° C. • Detection: UV at 225 nm • Separation mode: Gradient Gradient Program: […]
The results for liothyronine, largest unknown impurity, and total impurities as determined by peak area percent are set forth in Table 1.

[1] = 55° C., 1 W, pH 9, HP-β-cyclodextrin 10 mg/mL

**Q.** Which results are given for `N[C@@H](Cc1cc(I)c(Oc2cc(I)c(O)c(I)c2)c(I)c1)C(=O)[O-].[Na+]` [Levothyroxine Na, 4-(4-hydroxy-3,5-diiodophenoxy)-3,5-diiodo-L-phenylalanine sodium]?
**A.** % Liothyronine (25° C., 3 M, pH 9.5): 0.6%; % largest unknown impurity (25° C., 3 M, pH 9.5): 0.46%; % total impurities (25° C., 3 M, pH 9.5): 1.51%; % Liothyronine (25° C., 3 M, pH 10): 0.35%; % largest unknown impurity (25° C., 3 M, pH 10): 0.11%; % total impurities (25° C., 3 M, pH 10): 0.71%; % largest unknown impurity (40° C., 3 M, pH 9.5): 0.48%; % total impurities (40° C., 3 M, pH 9.5): 2.66%; % largest unknown impurity (40° C., 3 M, pH 10): 0.16%; % total impurities (40° C., 3 M, pH 10): 1.35%; % Liothyronine (40° C., 4 W, pH 9.5): 0.9%; % largest unknown impurity (40° C., 4 W, pH 9.5): 0.12%; % total impurities (40° C., 4 W, pH 9.5): 1.7%; % Liothyronine (40° C., 4 W, pH 10): 0.4%; % largest unknown impurity (40° C., 4 W, pH 10): 0.12%; % total impurities (40° C., 4 W, pH 10): 0.6%; % Liothyronine (55° C., 1 W, pH 8): 15.2%; % largest unknown impurity (55° C., 1 W, pH 8): 1.59%; % total impurities (55° C., 1 W, pH 8): 17.5%; % Liothyronine [1]: 2.7%; % largest unknown impurity [1]: 0.86%; % total impurities [1]: 4.0%; % Liothyronine (55° C., 1 W, pH 9): 2.7%; % largest unknown impurity (55° C., 1 W, pH 9): 0.67%; % total impurities (55° C., 1 W, pH 9): 3.6%; % Liothyronine (55° C., 1 W, pH 9.5): 1.2%; % largest unknown impurity (55° C., 1 W, pH 9.5): 0.50%; % total impurities (55° C., 1 W, pH 9.5): 2.2%; % Liothyronine (55° C., 1 W, pH 10): 0.6%; % largest unknown impurity (55° C., 1 W, pH 10): 0.27%; % total impurities (55° C., 1 W, pH 10): 1.5%; % largest unknown impurity (55° C., 4 W, pH 9.5): 0.09%; % total impurities (55° C., 4 W, pH 9.5): 2.1%; % Liothyronine (55° C., 4 W, pH 10): 3.1%; % largest unknown impurity (55° C., 4 W, pH 10): 0.55%; % total impurities (55° C., 4 W, pH 10): 4.2%
